Data reported in patent US8822171B1, “Methods for screening for inhibitors of tau phosphorylation by casein kinase I” (priority 2003, dated 2014).

Test system: Rat and human cortical neurons
Assay: Amyloid beta treatment of neurons; phosphotyrosine immunoprecipitation and Western blot with tau antibodies
Assay type: cell-based
Conditions: neurons treated with Aβ peptide for 1-10 min
Experimental: Rat and human cortical neurons were treated with Aβ peptide (25-35) or reverse Aβ peptide (35-25) for 1-10 min. Proteins containing phosphotyrosine were immunoprecipitated and separated by SDS-PAGE. Western blots of heat-stable extracts of neuronal cultures and immunoprecipitates were probed with antibodies to tau.

## Aβ peptide (25-35) (GSNKGAIIGLM; Amyloid-beta protein 42; UniProt P05067 696-706, looked up, fragment) [amyloid β-peptide fragment 25-35 used to treat rat and human cortical neurons]
  increase in phosphotyrosine in tau relative to basal level: approximately four times the basal level
  tyrosine phosphorylation of neuronal proteins including tau: increased tyrosine phosphorylation
